Assays:
[1] = target: T1, Signal transducer and activator of transcription 5A (Homo sapiens, UniProt P42229); assay: Binding affinity to N-terminal 6his-tagged human STAT5A (136 to 705 residues) expressed in Escherichia coli BL21-DE3 rosetta cells assessed as inhibition constant by FP assay
T1 sequence (P42229 whole entry): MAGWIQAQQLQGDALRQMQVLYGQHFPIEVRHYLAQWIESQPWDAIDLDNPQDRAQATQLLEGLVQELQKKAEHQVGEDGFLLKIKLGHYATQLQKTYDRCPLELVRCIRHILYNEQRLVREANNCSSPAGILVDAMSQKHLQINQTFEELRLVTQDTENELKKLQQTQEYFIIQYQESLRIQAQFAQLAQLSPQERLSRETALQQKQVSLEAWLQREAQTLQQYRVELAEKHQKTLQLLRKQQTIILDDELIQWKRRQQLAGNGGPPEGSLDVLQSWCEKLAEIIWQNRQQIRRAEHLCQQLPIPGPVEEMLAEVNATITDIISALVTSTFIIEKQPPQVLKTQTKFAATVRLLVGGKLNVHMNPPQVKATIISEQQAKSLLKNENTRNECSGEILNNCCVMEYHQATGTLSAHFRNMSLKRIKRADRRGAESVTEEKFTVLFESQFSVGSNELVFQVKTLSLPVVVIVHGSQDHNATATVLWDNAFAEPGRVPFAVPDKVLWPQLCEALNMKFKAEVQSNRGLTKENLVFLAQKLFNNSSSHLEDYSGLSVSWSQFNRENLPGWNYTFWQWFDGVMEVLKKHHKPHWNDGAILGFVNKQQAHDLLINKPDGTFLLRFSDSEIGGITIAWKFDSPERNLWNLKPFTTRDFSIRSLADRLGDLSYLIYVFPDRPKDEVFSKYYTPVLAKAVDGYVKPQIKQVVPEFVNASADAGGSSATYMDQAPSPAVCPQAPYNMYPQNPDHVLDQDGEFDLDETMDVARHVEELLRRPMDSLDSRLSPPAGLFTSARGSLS

[2] = target: T2, Signal transducer and activator of transcription 5B (Homo sapiens, UniProt P51692); assay: Binding affinity to STAT5B (unknown origin) assessed as inhibition constant by FP assay
T2 sequence (P51692 whole entry): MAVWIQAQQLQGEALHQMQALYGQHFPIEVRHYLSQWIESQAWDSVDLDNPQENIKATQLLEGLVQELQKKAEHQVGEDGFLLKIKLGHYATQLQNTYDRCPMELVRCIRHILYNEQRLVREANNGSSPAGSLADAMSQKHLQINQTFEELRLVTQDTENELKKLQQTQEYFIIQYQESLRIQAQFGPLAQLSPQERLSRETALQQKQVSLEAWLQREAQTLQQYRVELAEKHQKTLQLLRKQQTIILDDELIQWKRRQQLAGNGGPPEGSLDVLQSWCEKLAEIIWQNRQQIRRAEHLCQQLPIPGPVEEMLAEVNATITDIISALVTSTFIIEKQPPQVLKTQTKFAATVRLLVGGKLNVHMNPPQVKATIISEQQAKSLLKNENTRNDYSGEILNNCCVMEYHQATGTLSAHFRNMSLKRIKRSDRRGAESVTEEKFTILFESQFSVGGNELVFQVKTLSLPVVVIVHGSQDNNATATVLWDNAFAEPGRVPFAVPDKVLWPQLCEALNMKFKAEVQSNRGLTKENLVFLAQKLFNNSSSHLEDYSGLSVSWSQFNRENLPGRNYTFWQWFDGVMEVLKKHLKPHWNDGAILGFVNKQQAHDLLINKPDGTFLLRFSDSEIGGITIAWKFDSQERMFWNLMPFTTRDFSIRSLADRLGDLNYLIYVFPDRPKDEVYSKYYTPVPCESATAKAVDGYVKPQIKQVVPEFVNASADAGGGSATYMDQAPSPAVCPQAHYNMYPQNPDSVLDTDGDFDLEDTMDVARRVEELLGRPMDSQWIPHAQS

[3] = target: T3, Signal transducer and activator of transcription 6 (Homo sapiens, UniProt P42226); assay: Binding affinity to STAT6 SH2 domain (unknown origin) assessed as inhibition constant by FP assay
T3 sequence (P42226 whole entry): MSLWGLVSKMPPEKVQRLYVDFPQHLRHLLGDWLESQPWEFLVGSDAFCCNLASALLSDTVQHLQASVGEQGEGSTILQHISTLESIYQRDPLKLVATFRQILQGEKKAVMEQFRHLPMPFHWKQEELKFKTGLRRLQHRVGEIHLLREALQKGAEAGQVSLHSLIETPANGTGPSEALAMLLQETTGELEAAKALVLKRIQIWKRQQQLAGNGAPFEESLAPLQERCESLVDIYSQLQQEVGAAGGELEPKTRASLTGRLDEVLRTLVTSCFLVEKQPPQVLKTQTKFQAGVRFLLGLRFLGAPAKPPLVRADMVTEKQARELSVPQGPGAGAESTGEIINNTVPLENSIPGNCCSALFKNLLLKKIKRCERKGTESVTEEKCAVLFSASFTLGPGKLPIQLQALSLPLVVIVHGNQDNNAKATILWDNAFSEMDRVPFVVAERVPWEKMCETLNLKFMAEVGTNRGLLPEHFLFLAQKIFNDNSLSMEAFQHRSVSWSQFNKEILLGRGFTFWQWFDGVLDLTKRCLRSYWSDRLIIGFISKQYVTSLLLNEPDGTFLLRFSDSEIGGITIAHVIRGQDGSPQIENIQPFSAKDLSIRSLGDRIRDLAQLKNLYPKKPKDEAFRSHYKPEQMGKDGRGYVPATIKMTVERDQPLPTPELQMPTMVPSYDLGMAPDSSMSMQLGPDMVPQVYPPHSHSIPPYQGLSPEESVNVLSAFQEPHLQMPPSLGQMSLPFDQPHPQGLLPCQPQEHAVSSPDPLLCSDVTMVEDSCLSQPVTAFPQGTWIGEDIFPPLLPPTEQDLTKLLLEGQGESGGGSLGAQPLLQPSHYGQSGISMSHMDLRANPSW

[4] = target: T3, Signal transducer and activator of transcription 6; assay: Induction of STAT6 degradation in human SKNO-1 cells measured for 18 hrs by Western blot analysis; format: cell-based
[5] = target: T1, Signal transducer and activator of transcription 5A; assay: Induction of STAT5 degradation in human SKNO-1 cells measured for 18 hrs by Western blot analysis; format: cell-based
[6] = target: T4, Signal transducer and activator of transcription 5A (Homo sapiens) (UniProt P42229); assay: Induction of STAT5 degradation in human SKNO-1 cells assessed as maximal degradation at 0.05 to 5 uM measured for 18 hrs by Western blot analysis relative to control; format: cell-based; settings: dose 0.05-5 µM
T4 sequence (whole entry): T1 sequence (P42229 whole entry)

SMILES	Ki [1] [nM]	Ki [2] [nM]	Ki [3] [nM]	DC50 [4]	DC50 [5] [nM]	DC50 ([4]; read-out: DC50) [nM]	Emax [6] [%]
CN(C)C(=O)CCN(C(=O)[C@@H]1CCCN1C(=O)[C@@H](NC(=O)c1cc2cc(C(F)(F)P(=O)(O)O)ccc2s1)C1CC1)c1ccc(-c2nccs2)cc1	2900	3100	1300	–	–	–	–
CN(C)C(=O)CCN(C(=O)[C@@H]1CCCN1C(=O)[C@@H](NC(=O)c1cc2cc(C(F)(F)P(=O)(O)O)ccc2s1)C(C)(C)C)c1ccc(-c2ccccc2)cc1	3400	5200	2000	–	–	–	–
CC(C)(C)[C@H](NC(=O)c1cc2cc(C(F)(F)P(=O)(O)O)ccc2s1)C(=O)N1CCC[C@H]1C(=O)N(CCC(=O)N1CCC(C#Cc2cccc3c2CN(C2CCC(=O)NC2=O)C3=O)CC1)c1ccc(Br)cc1 (some centres undefined)	–	–	–	Not Active	> 5000	–	–
CN(C)C(=O)CCN(C(=O)[C@@H]1CCCN1C(=O)[C@@H](NC(=O)c1cc2cc(C(F)(F)P(=O)(O)O)ccc2s1)C(C)(C)C)c1cccc(-c2nccs2)c1	4900	6100	1900	–	–	–	–
CC(C)(C)[C@H](NC(=O)c1cc2cc(C(F)(F)P(=O)(O)O)ccc2s1)C(=O)N1CCC[C@H]1C(=O)N(CCC(=O)NCCC#Cc1cccc2c1CN(C1CCC(=O)NC1=O)C2=O)c1ccc(Br)cc1 (some centres undefined)	–	–	–	–	> 5000	> 5000	–
CC(C)(C)[C@H](NC(=O)c1cc2cc(C(F)(F)P(=O)(O)O)ccc2s1)C(=O)N1CCC[C@H]1C(=O)N(CCC(=O)NCCCCC#Cc1cccc2c1CN(C1CCC(=O)NC1=O)C2=O)c1ccc(Br)cc1 (some centres undefined)	–	–	–	–	500	> 5000	–
CN(CCCC#Cc1cccc2c1CN(C1CCC(=O)NC1=O)C2=O)C(=O)CCN(C(=O)[C@@H]1CCCN1C(=O)[C@@H](NC(=O)c1cc2cc(C(F)(F)P(=O)(O)O)ccc2s1)C(C)(C)C)c1ccc(Br)cc1 (some centres undefined)	–	–	–	–	190	> 5000	> 95
CC(C)(C)[C@H](NC(=O)c1cc2cc(C(F)(F)P(=O)(O)O)ccc2s1)C(=O)N1CCC[C@H]1C(=O)N(CCC(=O)NCCCCCCC#Cc1cccc2c1CN(C1CCC(=O)NC1=O)C2=O)c1ccc(Br)cc1 (some centres undefined)	–	–	–	–	1400	> 5000	–
CC(C)(C)[C@H](NC(=O)c1cc2cc(C(F)(F)P(=O)(O)O)ccc2s1)C(=O)N1CCC[C@H]1C(=O)N(CCC(=O)N1CCC(Nc2cccc3c2CN(C2CCC(=O)NC2=O)C3=O)CC1)c1ccc(Br)cc1 (some centres undefined)	–	–	–	Not Active	> 5000	–	–
CN(C)C(=O)CCN(C(=O)[C@@H]1CCCN1C(=O)[C@@H](NC(=O)c1cc2cc(C(F)(F)P(=O)(O)O)ccc2s1)C(C)(C)C)c1ccc2ccccc2c1	1200	1000	200	–	–	–	–
CC(C)(C)[C@H](NC(=O)c1cc2cc(C(F)(F)P(=O)(O)O)ccc2s1)C(=O)N1CCC[C@H]1C(=O)N(CCC(=O)N1CC(CCC#Cc2cccc3c2CN(C2CCC(=O)NC2=O)C3=O)C1)c1ccc(Br)cc1 (some centres undefined)	–	–	–	Not Active	4200	–	–
CN(C)C(=O)CCN(C(=O)[C@@H]1CCCN1C(=O)[C@H](CCc1ccccc1)NC(=O)c1cc2cc(C(F)(F)P(=O)(O)O)ccc2s1)c1ccc(-c2nccs2)cc1	1400	1600	1500	–	–	–	–
CN(C)C(=O)CCN(C(=O)[C@@H]1CCCN1C(=O)[C@H](Cc1ccc(Br)cc1)NC(=O)c1cc2cc(C(F)(F)P(=O)(O)O)ccc2s1)c1ccc(-c2nccs2)cc1	1200	1600	3000	–	–	–	–
CC(C)(C)[C@H](NC(=O)c1cc2cc(C(F)(F)P(=O)(O)O)ccc2s1)C(=O)N1CCC[C@H]1C(=O)N(CCC(=O)NCCCC#Cc1cccc2c1CN(C1CCC(=O)NC1=O)C2=O)c1ccc2scnc2c1 (some centres undefined)	1000	400	–	–	450	–	–
CN(C)C(=O)CCN(C(=O)[C@@H]1CCCN1C(=O)[C@H](Cc1ccc(C(F)(F)F)cc1)NC(=O)c1cc2cc(C(F)(F)P(=O)(O)O)ccc2s1)c1ccc(-c2nccs2)cc1	2300	2500	4000	–	–	–	–
CC(C)(C)[C@H](NC(=O)c1cc2cc(C(F)(F)P(=O)(O)O)ccc2s1)C(=O)N1CCC[C@H]1C(=O)N(CCC(=O)NCCCCCC#Cc1cccc2c1CN(C1CCC(=O)NC1=O)C2=O)c1ccc(Br)cc1 (some centres undefined)	–	–	–	–	1100	> 5000	–
CC(C)(C)[C@H](NC(=O)c1cc2cc(C(F)(F)P(=O)(O)O)ccc2s1)C(=O)N1CCC[C@H]1C(=O)N(CCC(=O)N1CC(CC#Cc2cccc3c2CN(C2CCC(=O)NC2=O)C3=O)C1)c1ccc(Br)cc1 (some centres undefined)	–	–	–	Not Active	> 5000	–	–
CN(C)C(=O)CCN(C(=O)[C@@H]1CCCN1C(=O)[C@@H](NC(=O)c1cc2cc(C(F)(F)P(=O)(O)O)ccc2s1)c1ccccc1)c1ccc(-c2nccs2)cc1	3200	4000	2500	–	–	–	–
CN(C)C(=O)CCN(C(=O)[C@@H]1CCCN1C(=O)[C@H](Cc1ccc(F)cc1)NC(=O)c1cc2cc(C(F)(F)P(=O)(O)O)ccc2s1)c1ccc(-c2nccs2)cc1	1000	1700	3500	–	–	–	–
